Columns and labels:
[1] = Dermal tolerability in rats; assay type: in vivo; conditions: female rats, 3 mg/kg/day daily for 8 days; for change in food consumption or body weight gain (in words): IVb decreases not statistically significant
Procedure: Experimental Design. Female rats were administered either vehicle or one of Cmpds IVa, IIIb, or IVb daily for 8 days. The administered dose was 3 mg/kg/day, at a concentration of 3 mg/mL. Observed data were body weight, viability, food consumption, and dermal observation (skin reaction grading), as known in the art. The vehicle was Formulation A. See Table 1 above.

[2] = microAmes mutagenesis screen; assay type: cell-based; conditions: with or without metabolic activation
Excerpt: Experimental Design. Cmpds IVa, IIIb, and IVb were subjected to the microAmes screen, as known in the art.

[3] = tested on: mouse model of hair regrowth; assay: Piliation studies (mouse model of hair regrowth); assay type: in vivo, mice
Procedure: Experimental Design. C57Black/6J, 7-week old female mice (n=10) were employed in piliation studies. Dorsal hair was shaved (area ˜2 cm×4 cm). Dosing of active agent was once per day (QD) by topical administration for 14 days. Observations were conducted for 42-days to determine onset of new hair growth and day of hair growth completion. Compounds were formulated as either a) 50% propylene glycol, 30% ethanol, 20% water, or b) the formulation of Formulation A described above. The experiments reported for FIGS. 4A-4B, 5A-5B, 6A-6B, 8A-8B, and 9A-9B were conducted using a vehicle with formulation of 50% propylene glycol, 30% ethanol, 20% water. The experiments reported for FIGS. 7A-7B were conducted using a vehicle of Formulation A described above.
Results. For each of FIGS. 4A, 5A, 6A, 7A, 8A and 9A, the histograms depict the day of onset of hair growth. For each of FIGS. 4B, 5B, 6B, 7B, 8B and 9B, the histograms depict the day achieving full hair growth.

mouse skin = assay: Pathology assessment of mouse hair regrowth model; assay type: in vivo, mice; conditions: histology, 0.03%; vehicle control still in growth phase
Excerpt: Experimental Design. Histological samples from test subjects employed in the studies described in Example 12 were obtained for pathology assessment.

[4] = Pharmacokinetic assessment of mouse hair regrowth model (blood and skin); assay type: in vivo, mice; conditions: 0.03% dermal daily, all measured time points, LC/MS-MS
Procedure: Experimental Design. Female C57BL/6J mice (n=2) were assayed per time point per treatment group. Treatment groups: (1) vehicle; (2) 0.03% Cmpd IVa; (3) 0.03% Cmpd IIIb; (4) 0.03% Cmpd IVb; (5) 0.03% bimatoprost. Treatment dosing: dermal daily application of ˜60 uL test compound solution. Blood and skin pharmacokinetic time points were obtained at day 1 (1, 4, 8 and 24-hrs post-dose); day 2 (24-hrs post-dose); day 14 (24-hrs post-dose); and day 42 (28 days post day 14 dose). Bioanalysis employed LC/MS-MS.

[5] = In vitro human skin penetration, Franz diffusion chamber; assay type: in vitro ADME; conditions: for conversion to bimatoprost in the receptor chamber solution / Percentage Dose Applied, Receptor Chamber Solution, Prodrug / Percentage Dose Applied, Upper ⅓ Dermis, Prodrug: 0.03% in Formulation A; for Percentage Dose Applied, Receptor Chamber Solution, Prodrug / Percentage Dose Applied, Upper ⅓ Dermis, Prodrug: applied agent; for Percentage Dose Applied, Upper ⅓ Dermis, Prodrug: dermis at 48 hrs; for conversion to bimatoprost in skin layers: SC/Epi/Dermis layers
Excerpt: Experimental Design. Test material: Dermatomed ex vivo human cadaver posterior trunk skin on 1.0 cm^2 Franz diffusion chamber as known in the art. Test size: 3 skin donors (obtained from New York Firefighters Skin Bank), 3 replicates per donor per formulation. Test formulations: 0.03% active agent (Cmpd IVa, Cmpd IIIb, Cmpd IVb) in Formulation A; control formulation: bimatoprost at 0.03% in Formulation A. Dosing regimen: receptor fluid at 2, 4, 24, and 48 hrs; SC/epidermis and dermis at 48 hrs. Sample analysis: LC/MS-MS to detect bimatoprost and Cmpds IVa, IIIb and IVb.

[6] = MALDI-MS imaging of compound distribution in mouse skin; assay type: in vivo
Procedure: Rationale. In order to determine the penetration, accumulation and/or differential distribution of bimatoprost and compounds disclosed herein upon dermal administration, MALDI-MS (matrix assisted laser desorption ionization mass spectroscopy) imaging was conducted on explanted samples of mouse skin after topical dermal administration.
Experimental Design. MALDI-MS imaging was conducted on mouse skin strips after administration of bimatoprost or compound disclosed herein once daily for 3 days. Samples of mouse skin were recovered 4 hr after day-3 dosing of compound. Dermal administration was conducted with vehicle, 0.03% bimatoprost, 3% bimatoprost, 0.03% Cmpd IVa, and 3% Cmpd IVa.
FIG. 16A depicts a typical explanted sample of mouse skin for these studies, wherein Cmpd IVa was applied via dermal administration. FIG. 16B depicts the result of MALDI-MS imaging. The intensity of each pixel within FIG. 16B reflects the concentration of Cmpd IVa at the corresponding point in the image depicted in FIG. 16A. FIG. 16C depicts a representative mass spectrum, corresponding to the region of FIG. 16B indicated by the white circle within FIG. 16B. Accordingly, each pixel of the image of FIG. 16B has an associated mass spectrum, providing the amounts of bimatoprost or other administered compound or metabolite thereof.

level in the systemic circulation [4]	conversion to bimatoprost in the receptor chamber solution [5]	Percentage Dose Applied, Receptor Chamber Solution, Prodrug [5]	Percentage Dose Applied, Upper ⅓ Dermis, Prodrug [5]	conversion to bimatoprost in skin layers [5]	skin penetration of compound compared with bimatoprost ([6]; 3.0% topical dermal administration each)	detectability of compound in mouse skin by MALDI-MS imaging ([6]; after topical dermal administration at 0.03%)	SMILES	Body Weight Gain, Mean ± SD [1]	Food Consumption, Mean ± SD [1]	change in food consumption or body weight gain (in words) [1]	mutagenicity [2]	activity in the time required to regain full hair growth ([3]; among compounds tested)	pharmacological efficacy relative to bimatoprost ([3]; vehicle Formulation A)	hair cycle phase at day-42 (mouse skin)	effectiveness of 0.03% compound compared to 0.1% to 0.3% bimatoprost ([3]; 0.03% Cmpd IVa)	pharmacological efficacy relative to bimatoprost ([3]; vehicle 50% propylene glycol, 30% ethanol, 20% water)
most undetectable	observed to convert to bimatoprost	2.1%	1.9%	converted to bimatoprost			CCNC(=O)CCC/C=C\C[C@@H]1[C@@H](/C=C/[C@H](CCc2ccccc2)OC(=O)CC)[C@H](O)C[C@@H]1O [Cmpd IVb, 15-propionyl-bimatoprost]	0.3 ± 6.7 g	19.19 ± 1.32 g	decreases in both food consumption and body weight gain	not mutagenic	best activity	approximately equivalent efficacy	returned to the resting phase		
most undetectable	observed to convert to bimatoprost	4.3%	3.8%	converted to bimatoprost	similar	detectable	CCNC(=O)CCC/C=C\C[C@@H]1[C@@H](/C=C/[C@H](CCc2ccccc2)OC(C)=O)[C@H](O)C[C@@H]1O [Cmpd IVa, 15-acetyl-bimatoprost]	9.0 ± 3.0 g	21.14 ± 1.08 g	no significant change	not mutagenic		greater than bimatoprost	returned to the resting phase	approximately equally effective	greater than bimatoprost
most undetectable	observed to convert to bimatoprost	0.8%	2.1%	converted to bimatoprost			CCNC(=O)CCC/C=C\C[C@@H]1[C@@H](/C=C/[C@@H](O)CCc2ccccc2)[C@H](OC(=O)CC)C[C@@H]1O [Cmpd IIIb, 11-propionyl bimatoprost]	10.0 ± 6.1 g	22.8 ± 1.36 g	no significant change	not mutagenic		approximately equivalent efficacy	returned to the resting phase		
most undetectable		1.1%	7.0%				CCNC(=O)CCC/C=C\C[C@@H]1[C@@H](/C=C/[C@@H](O)CCc2ccccc2)[C@H](O)C[C@@H]1O [bimatoprost, (Z)-7-((1R,2R,3R,5S)-3,5-dihydroxy-2-((S,E)-3-hydroxy-5-phenylpent-1-enyl)cyclopentyl)-N-ethylhept-5-enamide, reference compound]							returned to the resting phase		
